One test relates to plasma sarcosine. Put plainly: 28-day oral dosing study in rats, plasma sarcosine abundance by Polar LC/MS and GC/MS. It is filed as in vivo, rat. The following applies: 300 mg/kg daily oral, end of 28-day treatment. From the text: Fenofibrate (Sigma F-6020, Lot. 064K1584) and MPC-1 (Mitsubishi Pharma Corporation, Lot. F) were used in this study. These test substances were stored at room temperature.
Seventy-three male Crj:CD(SD)IGS rats (4.5 weeks old) were quarantined and acclimated for seven days after receipt. Two days before the initiation of dosing (Day −2), rats which had no abnormalities in clinical observation and body weight during the quarantine and acclimation period were selected and assigned to 5 groups using the stratified-by-weight randomization method to yield approximately the same mean body weights amongst the study groups.
The rats were dosed by oral gavage using a disposable stomach tube connecting to a syringe, at the dose volume of 5 mL/kg. The dosing was conducted once daily for 28 days. A control group was dosed with the vehicle only. Individual doses were calculated based on the most recently recorded body weights.
Preparation of dosing suspensions was as follows. The specified amount of test substance for each dose level was weighed and crushed with an agate mortar and a pestle. […]
Based on the total number of samples, the batches of samples were set up according to a batching scheme. Each sample was analyzed in duplicate. […] Each batch is analyzed in one analytical run. […]
All compounds eluting from the GC/MS column were detected in full scan mode. […]

For a further test, the system named is schizophrenia. The following applies: 2 g/day as add-on therapy to certain antipsychotics (but not clozapine), schizophrenia patients; cited from earlier work.
The target of test [1] is T1, type 1 glycine transporter, GLYT1 (Rattus norvegicus, UniProt P28572).
T1 construct: glycine transport in rat brain aggregates; host or cells: rat brain aggregates (endogenous protein)
T1 sequence (P28572 1-638): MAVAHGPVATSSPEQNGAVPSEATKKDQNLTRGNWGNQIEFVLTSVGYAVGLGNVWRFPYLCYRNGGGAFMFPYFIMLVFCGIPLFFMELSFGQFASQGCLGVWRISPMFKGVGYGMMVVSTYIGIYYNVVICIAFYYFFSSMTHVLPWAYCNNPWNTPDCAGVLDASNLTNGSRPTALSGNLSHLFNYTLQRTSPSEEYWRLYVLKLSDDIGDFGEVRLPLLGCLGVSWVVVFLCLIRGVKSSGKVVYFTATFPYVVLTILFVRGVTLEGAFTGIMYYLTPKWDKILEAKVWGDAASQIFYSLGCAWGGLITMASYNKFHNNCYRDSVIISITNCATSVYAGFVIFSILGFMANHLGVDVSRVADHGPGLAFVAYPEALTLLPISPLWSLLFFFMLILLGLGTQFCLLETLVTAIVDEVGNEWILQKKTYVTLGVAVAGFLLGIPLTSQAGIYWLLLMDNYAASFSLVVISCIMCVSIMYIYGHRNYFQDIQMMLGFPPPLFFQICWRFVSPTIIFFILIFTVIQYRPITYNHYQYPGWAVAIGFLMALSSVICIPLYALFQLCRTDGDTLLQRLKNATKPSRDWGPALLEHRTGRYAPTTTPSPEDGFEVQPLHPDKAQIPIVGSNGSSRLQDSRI
The following applies: rat brain aggregates; Atkinson, et al. 2001; read-out: IC50 for inhibition of glycine transport; cited from earlier work.

The next test relates to glycine transport. The following applies: other studies; read-out: IC50 for inhibition of glycine transport; cited from earlier work.

For the compound `CC(C)OC(=O)C(C)(C)Oc1ccc(C(=O)c2ccc(Cl)cc2)cc1` [fenofibrate], the “median fold change in plasma sarcosine abundance relative to vehicle” value in the test on plasma sarcosine (GC/MS platform) was determined as 3.74; with plasma sarcosine (Polar LC/MS platform), 4.25.
For `CNCC(=O)O` [sarcosine, N-methylglycine], the “effect on symptoms of schizophrenia” value with schizophrenia is “additional reductions in both positive and negative symptomatology”. Moreover, the results for the IC50 (in test [1]; in the test with glycine transport) were 13 µM and roughly 100 µM, respectively.

By IC50 is commonly meant the concentration that inhibits the measured activity by half.

These data come from patent publication US20110034551A1, “METHODS OF INCREASING SARCOSINE LEVELS FOR TREATING SCHIZOPHRENIA” (BG MEDICINE, INC., priority 2007, published 2011).
